Laboratory results from patent US4745124A, “Orally effective anti-hypertensive agents” (priority 1983, dated 1988).

How the values were obtained:
[1] = stability of aqueous solution of SQ 14225 on standing; type: physicochemical; conditions: 1 mg per ml, pH about 8, as little as 30 minutes
[2] = test system: ACE from guinea pig or human urine; experiment: inhibition of ACE prepared from guinea pig or human urine, [3H]-HipGlyGly substrate; type: biochemical; conditions: SQ 14,225 at 0.1 μM
Procedure: B. In certain experiments, as identified, an alternative assay system was employed using [^3 H]-HipGlyGly as substrate as described by Ryan, J. W., et al., Biochem. J. 167 501 (1977).
Fresh urine was ultrafiltered using a membrane (PTGC 142 05, Millipore Corp., Bedford, MA, U.S.A.) with a 10,000 MW retention limit. Typically, 500 ml of urine was ultrafiltered to approx. 15 ml and then the concentrated proteins were washed with water and then applied to a column (2.5×110 cm) of Sephacryl S-200, Trademark, Pharmacia Chemical Co., Uppsala, Sweden, previously equilibrated with 0.05M TrisHCl buffer, pH 8.0, with 0.5M NaCl. Under these conditions, ACE was eluted in two peaks; one, the major peak, was eluted just after the void volume (Ve /Vo =1.21) and the second (up to 20% of the total activity) at Ve /Vo =1.41. Enzyme activity was measured using [^3 H]-HipGlyGly as described in Example 1B. […] The activities were inhibited to a maximum of 84% by antibody to guinea pig lung ACE. The enzyme used herein was that of the first peak to emerge from the Sepacryl column. The enzyme preparation was concentrated about 10-fold by ultrafiltration. In one such experiment, the concentrated urinary protein solution obtained by ultrafiltration contained 2,400 m units of enzyme at 8.0 m units/mg of protein, and peak 1 from the Sephacryl column contained 1,100 m units at 814 m units/mg of protein. […]

[3] = oral; most patients; cited from earlier work

SMILES: C[C@H](CS)C(=O)N1CCCC1C(=O)O (stereo in doubt) [SQ 14225, D-3-mercapto-2-methylpropanoyl-L-proline]
- activity of aqueous solution on standing [1]: substantially less active
- inhibition of activities of both ACE peaks [2]: inhibited completely
- stability in normal gastric and intestinal environments [3]: sufficiently stable
